Results as given in paper PMC4965013, “Open Source Drug Discovery with the Malaria Box Compound Collection for Neglected Diseases and Beyond” (PLoS Pathogens, 2016).
Where two headings read alike, the source gives them in different places. Each block holds one compound with its values, some of them ahead of it.

What was measured:
P. falciparum = assay: EC50 listed in S2 Table Metabolomics (used to set the concentration tested); format: cell-based; settings: Plasmodium falciparum; EC50 used for Factor_XEC50 in metabolomics; read-out: EC50_nM
[1] = tested on: P. falciparum 3D7 trophozoites; assay: Metabolomic fingerprint profiling LC-MS; format: cell-based, Plasmodium falciparum; design: UDP-D-glucose / ADP-D-glucose: unit not given here; settings: for Acetyllysine / N-acetyl-L-ornithine / N-carbamoyl-L-aspartate / NADPH / dAMP / dCMP / dTDP / dTMP / dTTP / dihydroorotate / orotate / DLH / DLS/SDL/SID / PD / PEE / PVNF / 3-phosphoglycerate / ADP-D-glucose / ATP / CDP / D-sedoheptulose-1/7-phosphate / FAD / GMP / NAD+ / NADP+ / Octoluse Bisphosphate / Pyroglutamic acid / UDP-D-glucose / UDP-D-glucuronate / UDP-N-acetyl-glucosamine / UDP / UMP / UTP / a-ketoglutarate / citrate/isocitrate / cytidine / dATP / dGMP/AMP / fumarate / glucose-1/6-phosphate / glycerate / guanine / guanosine / hypoxanthine / indole / inosine / nicotinate / ornithine / phosphoenolpyruvate / pyruvate / ribose-phosphate / sarcosine/alanine / sn-glycerol-3-phosphate / succinate/methylmalonic acid / uridine / xanthosine: S2 Table Metabolomics; for Acetyllysine: metabolite Acetyllysine; for N-acetyl-L-ornithine: metabolite N-acetyl-L-ornithine; for N-carbamoyl-L-aspartate: metabolite N-carbamoyl-L-aspartate; for NADPH: metabolite NADPH; for dAMP: metabolite dAMP; for dCMP: metabolite dCMP; for dTDP: metabolite dTDP; for dTMP: metabolite dTMP; for dTTP: metabolite dTTP; for dihydroorotate: metabolite dihydroorotate; for orotate: metabolite orotate; for DLH: peptide DLH; for DLS/SDL/SID: peptide DLS/SDL/SID; for PD: peptide PD; for PEE: peptide PEE; for PVNF: peptide PVNF; for 3-phosphoglycerate: metabolite 3-phosphoglycerate; for ADP-D-glucose: metabolite ADP-D-glucose; for ATP: metabolite ATP; for CDP: metabolite CDP; for CDP / D-sedoheptulose-1/7-phosphate / GMP / Octoluse Bisphosphate / UDP / UMP / UTP / citrate/isocitrate / dGMP/AMP / fumarate / glucose-1/6-phosphate / glycerate / guanine / guanosine / inosine / pyruvate / sarcosine/alanine / succinate/methylmalonic acid / uridine / xanthosine: change in metabolite level after compound treatment; for D-sedoheptulose-1/7-phosphate: metabolite D-sedoheptulose-1/7-phosphate; for FAD: metabolite FAD; for GMP: metabolite GMP; for NAD+: metabolite NAD+; for NADP+: metabolite NADP+; for Octoluse Bisphosphate: metabolite Octoluse Bisphosphate; for Pyroglutamic acid: metabolite Pyroglutamic acid; for UDP-D-glucose: metabolite UDP-D-glucose; for UDP-D-glucuronate: metabolite UDP-D-glucuronate; for UDP-N-acetyl-glucosamine: metabolite UDP-N-acetyl-glucosamine; for UDP: metabolite UDP; for UMP: metabolite UMP; for UTP: metabolite UTP; for a-ketoglutarate: metabolite a-ketoglutarate; for citrate/isocitrate: metabolite citrate/isocitrate; for cytidine: metabolite cytidine; for dATP: metabolite dATP; for dGMP/AMP: metabolite dGMP/AMP; for fumarate: metabolite fumarate; for glucose-1/6-phosphate: metabolite glucose-1/6-phosphate; for glycerate: metabolite glycerate; for guanine: metabolite guanine; for guanosine: metabolite guanosine; for hypoxanthine: metabolite hypoxanthine; for indole: metabolite indole; for inosine: metabolite inosine; for 2_3-Diphosphoglyceric acid / 4-phosphopantothenate / 6-phospho-D-gluconate / FMN / IMP / Pyrophosphate / Sedoheptoluse bisphosphate / cyclic-AMP / glutathione disulfide / lactate / myo-inositol: metabolite level change after treatment; for nicotinate: metabolite nicotinate; for ornithine: metabolite ornithine; for phosphoenolpyruvate: metabolite phosphoenolpyruvate; for pyruvate: metabolite pyruvate; for ribose-phosphate: metabolite ribose-phosphate; for sarcosine/alanine: metabolite sarcosine/alanine; for sn-glycerol-3-phosphate: metabolite sn-glycerol-3-phosphate; for succinate/methylmalonic acid: metabolite succinate/methylmalonic acid; for uridine: metabolite uridine; for xanthosine: metabolite xanthosine
P. falciparum 3D7 = assay: [3H]-hypoxanthine growth inhibition, modified HCO3- or O2; format: cell-based; settings: for IC50: Plasmodium falciparum
[2] = 3D7, read-out: P. falciparum 3D7 IC50 1% O2, 1% O2 hypoxia
[3] = 3D7, read-out: P. falciparum 3D7 IC50 5% O2

- EC50 (P. falciparum): 22.6 nM
Structure (SMILES): Oc1ccccc1CNCC12CC3CC(CC(C3)C1)C2 [MMV020788]
- Acetyllysine [1]: -2.885
- N-acetyl-L-ornithine [1]: -2.954
- N-carbamoyl-L-aspartate [1]: -1.526
- NADPH [1]: 0.03625
- dAMP [1]: 0.309
- dCMP [1]: -0.3685
- dTDP [1]: -0.06212
- dTMP [1]: -0.1581
- dTTP [1]: -0.254
- dihydroorotate [1]: -1.002
- orotate [1]: -1.435
- DLH [1]: -2.982
- DLS/SDL/SID [1]: -2.352
- PD [1]: -3.15
- PEE [1]: -2.856
- PVNF [1]: -2.845
- 3-phosphoglycerate [1]: 0.739
- ADP-D-glucose [1]: -0.1615
- ATP [1]: -0.008574
- CDP [1]: 0.1968
- D-sedoheptulose-1/7-phosphate [1]: -0.6783
- FAD [1]: -0.02526
- GMP [1]: -0.06975
- NAD+ [1]: -0.1588
- NADP+ [1]: -0.008021
- Octoluse Bisphosphate [1]: -0.4633
- Pyroglutamic acid [1]: -0.07383
- UDP-D-glucose [1]: 0.01367
- UDP-D-glucuronate [1]: -0.09612
- UDP-N-acetyl-glucosamine [1]: -0.01836
- UDP [1]: -0.3321
- UMP [1]: -0.241
- UTP [1]: -0.2582
- a-ketoglutarate [1]: -0.5092
- citrate/isocitrate [1]: -0.2786
- cytidine [1]: 0.02539
- dATP [1]: -0.1887
- dGMP/AMP [1]: 0.3187
- fumarate [1]: -0.7339
- glucose-1/6-phosphate [1]: -0.008522
- glycerate [1]: -0.4973
- guanine [1]: -0.3533
- guanosine [1]: -0.149
- hypoxanthine [1]: -0.5956
- indole [1]: -0.4443
- inosine [1]: -0.3499
- 2_3-Diphosphoglyceric acid [1]: 0.3339
- 4-phosphopantothenate [1]: -0.308
- 6-phospho-D-gluconate [1]: 0.001521
- FMN [1]: -0.2331
- IMP [1]: -0.5843
- Pyrophosphate [1]: 0.1188
- Sedoheptoluse bisphosphate [1]: -0.1032
- cyclic-AMP [1]: -0.6828
- glutathione disulfide [1]: -0.3605
- lactate [1]: -0.4043
- myo-inositol [1]: -0.5298
- nicotinate [1]: -0.1476
- ornithine [1]: -0.2765
- phosphoenolpyruvate [1]: 0.5824
- pyruvate [1]: 0.6752
- ribose-phosphate [1]: 0.658
- sarcosine/alanine [1]: -1.087
- sn-glycerol-3-phosphate [1]: 0.6534
- succinate/methylmalonic acid [1]: 0.06183
- uridine [1]: -0.2427
- xanthosine [1]: -0.4659
- fold change (IC50normal/ IC50hypoxia) (P. falciparum 3D7): 2.2
- IC50 (P. falciparum 3D7; [2]): 63 nM
- IC50 (P. falciparum 3D7; [3]): 136 nM

- EC50 (P. falciparum): 242 nM
Structure (SMILES): CCCc1c(CC)c(=N)c2ccccc2n1C [MMV008416]
- Acetyllysine [1]: 0.2915
- N-acetyl-L-ornithine [1]: 0.3364
- N-carbamoyl-L-aspartate [1]: 0.3652
- NADPH [1]: 0.8856
- dAMP [1]: 0.5762
- dCMP [1]: 3.613
- dTDP [1]: 0.4591
- dTMP [1]: 0.9083
- dTTP [1]: 0.4804
- dihydroorotate [1]: 0.2294
- orotate [1]: -0.1417
- DLH [1]: -1.006
- DLS/SDL/SID [1]: 0.3509
- PD [1]: 0.4359
- PEE [1]: -0.9814
- PVNF [1]: 0.2215
- 3-phosphoglycerate [1]: -0.02776
- ADP-D-glucose [1]: 0.4196
- ATP [1]: 0.6896
- CDP [1]: 0.2951
- D-sedoheptulose-1/7-phosphate [1]: -0.3684
- FAD [1]: 0.5238
- GMP [1]: 0.02334
- NAD+ [1]: 0.4432
- NADP+ [1]: 0.7628
- Octoluse Bisphosphate [1]: 0.3902
- Pyroglutamic acid [1]: -0.3783
- UDP-D-glucose [1]: 0.135
- UDP-D-glucuronate [1]: -0.2053
- UDP-N-acetyl-glucosamine [1]: 0.4341
- UDP [1]: 0.7261
- UMP [1]: -0.1733
- UTP [1]: 0.4819
- a-ketoglutarate [1]: 0.04368
- citrate/isocitrate [1]: -1.579
- cytidine [1]: 0.4905
- dATP [1]: 0.253
- dGMP/AMP [1]: 0.3177
- fumarate [1]: -0.39
- glucose-1/6-phosphate [1]: 2.308
- glycerate [1]: 0.1238
- guanine [1]: 0.3854
- guanosine [1]: -0.8003
- hypoxanthine [1]: 0.09764
- indole [1]: 0.1467
- inosine [1]: -0.1012
- 2_3-Diphosphoglyceric acid [1]: 0.2083
- 4-phosphopantothenate [1]: 0.7504
- 6-phospho-D-gluconate [1]: 0.5606
- FMN [1]: 0.7862
- IMP [1]: 0.4308
- Pyrophosphate [1]: -0.6119
- Sedoheptoluse bisphosphate [1]: 0.3141
- cyclic-AMP [1]: 0.6453
- glutathione disulfide [1]: 0.5116
- lactate [1]: 1.188
- myo-inositol [1]: 2.818
- nicotinate [1]: -0.5574
- ornithine [1]: -0.1174
- phosphoenolpyruvate [1]: -0.4016
- pyruvate [1]: 0.4708
- ribose-phosphate [1]: 0.2759
- sarcosine/alanine [1]: 0.4883
- sn-glycerol-3-phosphate [1]: 0.06223
- succinate/methylmalonic acid [1]: -0.5916
- uridine [1]: 0.398
- xanthosine [1]: -0.8913
- fold change (IC50normal/ IC50hypoxia) (P. falciparum 3D7): 6.1
- IC50 (P. falciparum 3D7; [2]): 65 nM
- IC50 (P. falciparum 3D7; [3]): 397 nM

- EC50 (P. falciparum): 235 nM
Structure (SMILES): CN(C)CCCNc1c2ccccc2nc2ccccc12 [MMV000448]
- Acetyllysine [1]: -0.6096
- N-acetyl-L-ornithine [1]: -0.1966
- N-carbamoyl-L-aspartate [1]: -0.218
- NADPH [1]: 1.387
- dAMP [1]: -0.07728
- dCMP [1]: 0.0599
- dTDP [1]: -0.2724
- dTMP [1]: -0.1401
- dTTP [1]: 0.115
- dihydroorotate [1]: -0.03007
- orotate [1]: -0.5122
- DLH [1]: -0.2186
- DLS/SDL/SID [1]: 0.06919
- PD [1]: 0.358
- PEE [1]: 0.9721
- PVNF [1]: 0.2725
- 3-phosphoglycerate [1]: -0.1099
- ADP-D-glucose [1]: 0.3085
- ATP [1]: -0.1913
- CDP [1]: 0.02837
- D-sedoheptulose-1/7-phosphate [1]: -0.03224
- FAD [1]: -0.02095
- GMP [1]: -0.2572
- NAD+ [1]: -0.1627
- NADP+ [1]: 0.3266
- Octoluse Bisphosphate [1]: -0.105
- Pyroglutamic acid [1]: -0.3472
- UDP-D-glucose [1]: -0.06298
- UDP-D-glucuronate [1]: -0.1533
- UDP-N-acetyl-glucosamine [1]: -0.07606
- UDP [1]: 0.1622
- UMP [1]: -0.1529
- UTP [1]: 0.06952
- a-ketoglutarate [1]: -0.5075
- citrate/isocitrate [1]: -0.2451
- cytidine [1]: -0.2174
- dATP [1]: 0.09204
- dGMP/AMP [1]: -0.1732
- fumarate [1]: 0.04552
- glucose-1/6-phosphate [1]: -0.4595
- glycerate [1]: -0.9564
- guanine [1]: 0.005054
- guanosine [1]: -0.4079
- hypoxanthine [1]: -0.5072
- indole [1]: -0.3067
- inosine [1]: -0.6058
- 2_3-Diphosphoglyceric acid [1]: 0.03945
- 4-phosphopantothenate [1]: -0.1337
- 6-phospho-D-gluconate [1]: 0.01561
- FMN [1]: -0.3847
- IMP [1]: -0.1057
- Pyrophosphate [1]: 0.1028
- Sedoheptoluse bisphosphate [1]: -0.05677
- cyclic-AMP [1]: -0.3139
- glutathione disulfide [1]: -0.02692
- lactate [1]: -0.5186
- myo-inositol [1]: -0.8275
- nicotinate [1]: -0.004192
- ornithine [1]: -0.09669
- phosphoenolpyruvate [1]: -0.129
- pyruvate [1]: -0.7877
- ribose-phosphate [1]: -0.2371
- sarcosine/alanine [1]: 0.03174
- sn-glycerol-3-phosphate [1]: -0.01243
- succinate/methylmalonic acid [1]: -0.2869
- uridine [1]: -0.8523
- xanthosine [1]: -0.9083
- fold change (IC50normal/ IC50hypoxia) (P. falciparum 3D7): 6.1
- fold change (IC50reduced/IC50normal) (P. falciparum 3D7): 3.1
- IC50 (P. falciparum 3D7; [2]): 59 nM
- IC50 (P. falciparum 3D7; [3]): 360 nM
- IC50 (P. falciparum 3D7; 3D7, read-out: P. falciparum 3D7 IC50 HCO3- (2g/L), standard media): 190 nM
- IC50 (P. falciparum 3D7; 3D7, HCO3- reduced media, read-out: P. falciparum 3D7 IC50 HCO3- reduced): 594 nM
